Experimental data from patent US5093351A, “Substituted indole, benzofuran and benzothiophene derivatives as 5-lipoxygenase inhibitors” (Du Pont Merck Pharmaceutical Company, priority 1989, dated 1992).

Tests used:
[1] = tested on: arachidonic acid-induced ear edema; assay: Arachidonic acid-induced ear edema in CF1 mice, topical; assay type: in vivo; settings: Mus musculus, 1 h, 100 μg/ear, topical in acetone just prior to 1 mg arachidonic acid, one hour after challenge
Protocol: This assay indicates a specific use in the treatment of skin diseases such as psoriasis. This assay also implies a reduction in leukotrienes caused by the compounds of the invention, and indicates the use of these compounds in other diseases where the production of leukotrienes is involved in the pathological process.
The assay is a modification of the procedure described by Young et al. (J. Invest. Dermatol. (1983) 80, 48). 1 mg of arachidonic acid is applied as an acetone solution to the inner surface of the pinna of CF1 mice. Test compound dissolved in acetone is applied to the ear just prior to the arachidonic acid challenge. One hour after challenge, 6 mm disks are removed from the ear with a biopsy punch, and the weight is determined. The results are determined as a percent inhibition of the swelling which occurs in the absence of the test compound.

[2] = target: T1, 5-lipoxygenase (Rattus norvegicus, UniProt P12527); assay: 5-lipoxygenase inhibition, 10,000×g supernatant from homogenized rat basophilic leukemia (RBL-1) cells; assay type: biochemical; settings: RBL-1 10,000×g supernatant, pH 7.0, 5 min incubation with compound, 14C-arachidonic acid, 37° C., two minutes
T1 construct: endogenous in cells; host or cells: RBL-1 (rat basophilic leukemia) cells, 10,000×g supernatant of homogenate
T1 sequence (P12527 1-673): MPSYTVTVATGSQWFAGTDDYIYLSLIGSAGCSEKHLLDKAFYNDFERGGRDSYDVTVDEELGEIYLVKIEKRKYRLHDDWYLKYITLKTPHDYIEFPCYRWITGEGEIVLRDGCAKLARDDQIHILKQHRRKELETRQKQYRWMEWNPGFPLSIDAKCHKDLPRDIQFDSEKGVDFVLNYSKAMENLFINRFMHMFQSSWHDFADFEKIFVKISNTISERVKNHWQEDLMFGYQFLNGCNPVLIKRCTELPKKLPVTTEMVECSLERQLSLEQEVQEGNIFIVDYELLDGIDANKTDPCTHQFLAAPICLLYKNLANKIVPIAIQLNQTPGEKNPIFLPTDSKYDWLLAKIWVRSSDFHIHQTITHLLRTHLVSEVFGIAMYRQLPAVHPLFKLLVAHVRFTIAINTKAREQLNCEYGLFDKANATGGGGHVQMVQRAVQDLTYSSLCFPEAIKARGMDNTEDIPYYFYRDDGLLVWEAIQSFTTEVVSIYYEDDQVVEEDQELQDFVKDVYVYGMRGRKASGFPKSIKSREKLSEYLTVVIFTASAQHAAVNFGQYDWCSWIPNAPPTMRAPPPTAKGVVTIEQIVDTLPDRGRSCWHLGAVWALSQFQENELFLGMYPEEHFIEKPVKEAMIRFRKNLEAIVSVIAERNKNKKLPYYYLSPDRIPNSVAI
Protocol: The test method is a modification of the procedure developed by Jakschik et al. (Prostaglandins (1978) 16, 733; Biochem. Biophys. Res. Commun. (1980) 95, 103; Biochem. Biophys. Res. Commun. (1981) 102, 624).
The 10,000×g supernatant from homogenized RBL-1 cells was incubated with test compound in a pH 7.0 phosphate buffer for five minutes. ^14 C-arachidonic acid was added to initiate the reaction, which was allowed to continue at 37° C. for two minutes. The reaction was stopped by freezing in a dry ice/ethanol slurry, and the 5-lipoxygenase products were separated from the substrate on silica gel columns. The amount of individual lipoxygenase products produced was determined and the percent inhibition calculated.

IC50 [2] [nM]	SMILES	inhibition in vivo at 100 µg/ear [1] [%]
–	CC(=O)Oc1c(Cc2cccs2)ccc2c1ccn2C [Example 6b]	54
56	Cn1ccc2c(O)c(Cc3ccccc3)ccc21 [Example 1a, 1-Methyl-4-hydroxy-5-phenylmethylindole]	74
–	COc1ccc(Cc2ccc3c(ccn3C)c2O)cc1 [Example 1e]	64
42	Oc1c(Cc2ccccc2)ccc2c1ccn2Cc1ccccc1 [Example 1d]	41
400	Oc1c(Cc2ccccc2)ccc2occc12 [Example 1c]	42
–	Cn1ccc2c(O)c(Cc3ccc4c(c3)OCO4)ccc21 [Example 1g]	54
–	COc1ccc(Cc2ccc3c(ccn3C)c2OC(C)=O)cc1 [Example 6c]	72
130	Oc1c(Cc2ccccc2)ccc2sccc12 [Example 1b]	53

SMILES	IC50 [2] [nM]	inhibition in vivo at 100 µg/ear [1] [%]
CC(=O)Oc1c(Cc2ccccc2)ccc2c1ccn2C [Example 6a, 1-Methyl-4-acetoxy-5-phenylmethylindole]	420	72
